# According to paper PMC7108927, “TYK2 inhibition reduces type 3 immunity and modifies disease progression in murine spondyloarthritis” (The Journal of Clinical Investigation, 2020):
# How the values were obtained:
# Experiment in all cases: radiometric kinase assay with peptide substrate
# Type in all cases: biochemical
# JAK2 = JAK2 (Homo sapiens, UniProt O60674)
# JAK3 = target: T1, JAK3 (Homo sapiens, UniProt P52333)
# T1 sequence (P52333 1-1124): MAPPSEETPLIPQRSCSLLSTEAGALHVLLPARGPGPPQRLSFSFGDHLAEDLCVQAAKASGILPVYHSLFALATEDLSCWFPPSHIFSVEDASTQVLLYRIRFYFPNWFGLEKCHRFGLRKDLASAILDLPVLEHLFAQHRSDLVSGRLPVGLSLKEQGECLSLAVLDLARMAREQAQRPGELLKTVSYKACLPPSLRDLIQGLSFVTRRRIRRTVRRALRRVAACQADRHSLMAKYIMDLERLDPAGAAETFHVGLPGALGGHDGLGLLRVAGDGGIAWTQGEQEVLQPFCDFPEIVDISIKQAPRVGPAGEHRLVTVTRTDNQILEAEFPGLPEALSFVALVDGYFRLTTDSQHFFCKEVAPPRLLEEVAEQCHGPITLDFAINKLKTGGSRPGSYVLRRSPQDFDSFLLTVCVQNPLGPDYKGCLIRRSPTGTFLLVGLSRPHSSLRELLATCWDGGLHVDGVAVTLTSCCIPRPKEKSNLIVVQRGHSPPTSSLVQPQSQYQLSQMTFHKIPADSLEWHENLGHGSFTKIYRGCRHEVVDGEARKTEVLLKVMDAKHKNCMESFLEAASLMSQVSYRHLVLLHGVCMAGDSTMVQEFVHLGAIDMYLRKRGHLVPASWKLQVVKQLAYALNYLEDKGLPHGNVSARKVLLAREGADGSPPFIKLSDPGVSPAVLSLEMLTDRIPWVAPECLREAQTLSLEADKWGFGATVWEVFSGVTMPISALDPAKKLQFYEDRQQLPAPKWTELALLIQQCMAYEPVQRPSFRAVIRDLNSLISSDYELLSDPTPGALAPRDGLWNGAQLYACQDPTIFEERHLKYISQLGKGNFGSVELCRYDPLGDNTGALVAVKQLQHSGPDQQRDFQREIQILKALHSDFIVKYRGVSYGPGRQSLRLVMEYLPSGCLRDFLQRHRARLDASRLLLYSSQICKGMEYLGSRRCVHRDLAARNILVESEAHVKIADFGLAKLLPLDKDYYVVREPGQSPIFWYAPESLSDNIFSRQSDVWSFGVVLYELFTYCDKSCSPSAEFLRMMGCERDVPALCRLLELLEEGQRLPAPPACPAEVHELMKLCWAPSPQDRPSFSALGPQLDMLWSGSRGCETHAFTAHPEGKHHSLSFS
# JAK1 = JAK1 (Homo sapiens, UniProt P23458)
# JAK1, sequence (P23458 whole entry): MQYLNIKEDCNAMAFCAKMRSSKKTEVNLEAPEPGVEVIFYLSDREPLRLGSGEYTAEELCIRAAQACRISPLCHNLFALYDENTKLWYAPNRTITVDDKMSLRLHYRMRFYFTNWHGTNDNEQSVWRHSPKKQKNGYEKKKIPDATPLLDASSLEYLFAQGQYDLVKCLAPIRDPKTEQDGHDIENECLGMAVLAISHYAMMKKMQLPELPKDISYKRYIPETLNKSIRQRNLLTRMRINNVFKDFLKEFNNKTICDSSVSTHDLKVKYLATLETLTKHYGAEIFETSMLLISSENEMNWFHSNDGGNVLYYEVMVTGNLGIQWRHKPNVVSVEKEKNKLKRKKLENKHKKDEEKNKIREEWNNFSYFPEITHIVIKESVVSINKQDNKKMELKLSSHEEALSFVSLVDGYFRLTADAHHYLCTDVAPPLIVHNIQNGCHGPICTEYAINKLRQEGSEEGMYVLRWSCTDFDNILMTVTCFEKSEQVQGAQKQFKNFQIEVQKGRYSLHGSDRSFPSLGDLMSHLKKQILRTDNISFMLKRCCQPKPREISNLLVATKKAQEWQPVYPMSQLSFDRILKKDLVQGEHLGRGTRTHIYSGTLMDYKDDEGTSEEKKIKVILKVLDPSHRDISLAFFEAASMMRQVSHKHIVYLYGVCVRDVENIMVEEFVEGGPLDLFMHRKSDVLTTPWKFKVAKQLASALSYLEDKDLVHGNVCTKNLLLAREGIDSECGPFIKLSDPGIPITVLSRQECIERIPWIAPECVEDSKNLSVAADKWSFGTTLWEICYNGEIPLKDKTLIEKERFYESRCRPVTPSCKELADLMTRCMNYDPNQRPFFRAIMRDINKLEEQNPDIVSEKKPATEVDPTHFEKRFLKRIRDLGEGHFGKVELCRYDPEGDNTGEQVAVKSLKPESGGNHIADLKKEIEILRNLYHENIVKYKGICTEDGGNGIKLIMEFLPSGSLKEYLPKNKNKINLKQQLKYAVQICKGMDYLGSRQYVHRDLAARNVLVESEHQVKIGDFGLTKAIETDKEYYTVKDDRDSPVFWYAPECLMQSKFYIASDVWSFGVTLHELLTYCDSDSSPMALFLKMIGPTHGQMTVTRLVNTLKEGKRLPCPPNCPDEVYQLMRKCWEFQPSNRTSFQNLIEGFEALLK
# TYK2 = TYK2 (Homo sapiens, UniProt P29597)
# TYK2, sequence (P29597 whole entry): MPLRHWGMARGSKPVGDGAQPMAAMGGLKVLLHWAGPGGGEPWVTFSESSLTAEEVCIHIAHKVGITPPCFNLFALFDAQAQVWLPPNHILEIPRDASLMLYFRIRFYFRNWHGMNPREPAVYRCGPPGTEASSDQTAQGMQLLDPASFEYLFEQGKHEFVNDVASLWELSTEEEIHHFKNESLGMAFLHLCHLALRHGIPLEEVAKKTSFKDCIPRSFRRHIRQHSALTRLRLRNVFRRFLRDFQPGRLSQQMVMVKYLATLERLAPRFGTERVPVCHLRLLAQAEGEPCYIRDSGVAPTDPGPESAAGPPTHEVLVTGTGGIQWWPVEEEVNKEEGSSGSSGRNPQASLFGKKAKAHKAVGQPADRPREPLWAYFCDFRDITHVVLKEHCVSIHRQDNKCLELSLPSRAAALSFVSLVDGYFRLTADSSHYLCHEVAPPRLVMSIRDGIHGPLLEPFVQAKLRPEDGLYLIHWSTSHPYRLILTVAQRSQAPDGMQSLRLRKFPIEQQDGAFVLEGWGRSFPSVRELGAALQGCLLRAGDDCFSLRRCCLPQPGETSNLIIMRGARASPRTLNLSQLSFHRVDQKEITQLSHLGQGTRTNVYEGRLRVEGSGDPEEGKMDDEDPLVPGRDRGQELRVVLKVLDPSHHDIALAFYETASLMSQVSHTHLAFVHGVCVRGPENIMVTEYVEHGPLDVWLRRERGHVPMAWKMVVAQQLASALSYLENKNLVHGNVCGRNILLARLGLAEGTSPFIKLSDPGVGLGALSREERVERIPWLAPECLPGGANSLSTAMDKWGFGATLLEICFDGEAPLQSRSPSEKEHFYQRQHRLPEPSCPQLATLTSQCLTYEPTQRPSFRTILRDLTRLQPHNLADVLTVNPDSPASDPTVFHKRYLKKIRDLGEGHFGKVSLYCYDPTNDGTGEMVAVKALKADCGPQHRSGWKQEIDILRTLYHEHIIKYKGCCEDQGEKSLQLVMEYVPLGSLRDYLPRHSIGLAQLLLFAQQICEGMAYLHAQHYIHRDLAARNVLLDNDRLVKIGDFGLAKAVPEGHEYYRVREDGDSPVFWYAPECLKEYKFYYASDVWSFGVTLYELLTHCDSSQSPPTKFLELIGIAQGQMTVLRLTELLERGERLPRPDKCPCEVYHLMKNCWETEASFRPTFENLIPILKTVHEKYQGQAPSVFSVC
# JAK2, sequence (O60674 whole entry): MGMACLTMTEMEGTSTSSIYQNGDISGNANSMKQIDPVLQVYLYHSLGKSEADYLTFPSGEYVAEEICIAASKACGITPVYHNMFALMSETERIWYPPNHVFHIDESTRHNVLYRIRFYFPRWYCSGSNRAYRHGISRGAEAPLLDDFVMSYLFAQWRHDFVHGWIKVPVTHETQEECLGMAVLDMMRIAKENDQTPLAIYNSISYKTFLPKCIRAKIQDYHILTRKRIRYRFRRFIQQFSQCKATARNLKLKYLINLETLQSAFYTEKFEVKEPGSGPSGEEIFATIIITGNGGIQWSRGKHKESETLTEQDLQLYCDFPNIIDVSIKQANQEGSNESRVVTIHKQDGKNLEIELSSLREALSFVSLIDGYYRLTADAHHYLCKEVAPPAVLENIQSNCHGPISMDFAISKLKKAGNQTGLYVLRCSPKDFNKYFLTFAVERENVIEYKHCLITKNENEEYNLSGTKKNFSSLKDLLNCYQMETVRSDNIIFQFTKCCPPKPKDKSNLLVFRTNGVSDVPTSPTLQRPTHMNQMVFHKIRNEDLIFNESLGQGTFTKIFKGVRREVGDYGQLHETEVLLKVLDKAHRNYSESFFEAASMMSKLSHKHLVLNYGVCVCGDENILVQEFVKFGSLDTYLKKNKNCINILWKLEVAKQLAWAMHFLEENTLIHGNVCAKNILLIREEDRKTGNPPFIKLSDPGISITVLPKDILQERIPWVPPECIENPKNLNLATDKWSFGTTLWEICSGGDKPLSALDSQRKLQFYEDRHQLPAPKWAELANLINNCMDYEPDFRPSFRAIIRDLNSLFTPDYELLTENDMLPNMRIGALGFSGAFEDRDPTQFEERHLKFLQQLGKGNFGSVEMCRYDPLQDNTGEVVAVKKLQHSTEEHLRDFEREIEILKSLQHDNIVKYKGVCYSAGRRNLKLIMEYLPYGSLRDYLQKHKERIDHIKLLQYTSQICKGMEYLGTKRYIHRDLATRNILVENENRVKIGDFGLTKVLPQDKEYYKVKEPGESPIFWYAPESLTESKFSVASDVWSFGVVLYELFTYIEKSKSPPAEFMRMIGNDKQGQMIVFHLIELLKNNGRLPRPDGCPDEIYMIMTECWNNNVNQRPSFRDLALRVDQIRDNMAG
substance,measurement,setting,value
NDI-031407,IC50,JAK2,31 nM
same,IC50,JAK3,4.2 nM
same,IC50,JAK1,46 nM
same,IC50,TYK2,0.21 nM
